This note sets out measurements from US20260317320A1, “C5AR1 ANTAGONISTS AND USES THEREOF” (Vanqua Bio, Inc., priority 2022, published 2026).

Like-named read-outs stand apart in the source and are kept apart here.

For test [1], the target named is T1, complement C5a receptor 1 (C5aR1) (Homo sapiens, UniProt P21730).
T1 construct: β-galactosidase fragment (PathHunter enzyme complementation); host or cells: CHO-K1 (PathHunter CHO-K1 C5aR1 β-arrestin cell line)
T1 sequence (P21730 1-350): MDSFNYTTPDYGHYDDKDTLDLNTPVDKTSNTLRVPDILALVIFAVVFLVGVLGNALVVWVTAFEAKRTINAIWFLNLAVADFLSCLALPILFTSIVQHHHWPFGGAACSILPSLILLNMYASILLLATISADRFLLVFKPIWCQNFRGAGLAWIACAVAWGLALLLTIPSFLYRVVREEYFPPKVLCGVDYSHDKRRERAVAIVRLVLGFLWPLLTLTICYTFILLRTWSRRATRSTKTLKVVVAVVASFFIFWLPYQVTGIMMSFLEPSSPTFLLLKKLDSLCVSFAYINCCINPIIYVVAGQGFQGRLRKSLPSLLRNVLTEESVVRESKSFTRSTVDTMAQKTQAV
As to the kind of experiment: β-arrestin recruitment via C5aR1 activation in live CHO-K1 cells (PathHunter), antagonist mode. In kind it is cell-based. Particulars: antagonist mode; recombinant hC5a (EC90) as competing natural agonist; live CHO-K1 cells; read-out: [Antagonist] B-arrestin2 recruitment: Average IC50; call rule not given here. The gist of the method:
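β-arrestin recruitment to C5aR1 in CHO-K1 cells is detected by enzyme-fragment complementation. Antagonism is measured against recombinant hC5a at its EC90; agonism is measured with compound alone. Potencies are grouped into IC50 categories.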

Test [2] addresses T1, complement C5a receptor 1 (C5aR1). As to the kind of experiment: β-arrestin recruitment via C5aR1 activation in live CHO-K1 cells (PathHunter), agonist mode. The class given is cell-based. Here is the method: Exemplary compounds were evaluated for classical GPCR β-arrestin recruitment via complement C5a receptor 1 (C5aR1) activation in live CHO-K1 cells. This cell line expresses two fragments of the […] protein coupled to β-arrestin and C5aR1. Complementation of the two fragments allows for the assessment of both C5aR1 agonism and antagonism. Recombinant hC5a (EC90) was used as the competing natural agonist against disclosed compounds (more information on the expanded protocol and cell line can be found on the manufacturer's website: PathHunter® CHO-K1 C5aR1 β-arrestin cell line, DiscoverX, Catalog No. 93-0557C2). […] IC50 ranges: A: IC50≤500 nM; B: 500 nM<IC50≤5 uM; C: 5 uM<IC50≤100 uM; D: IC50>100 uM.
(Arrestin recruitment assays detect the binding of arrestin to an activated receptor.)

On to `Cc1cnc2cc([C@H]3CC[C@H](c4c(C)ccnc4F)CC3)c(=O)n(Cc3ncccc3C(F)(F)F)c2n1` [147B, 7-((1r,4r)-4-(2-Fluoro-4-methylpyridin-3-yl)cyclohexyl)-3-methyl-5-((3-(trifluoromethyl)pyridin-2-yl)methyl)pyrido[2,3-b]pyrazin-6(5H)-one], for which the IC50 – broadly, the concentration needed to halve the response being measured – in test [1] was below 500 nM. Besides, in test [2], the “[Agonist] B-arrestin2 recruitment: Average EC50 (nM)” value (shortened to “[Agonist] B-arrestin2 recruitment”) is given as “Non-Active”.
Consider `Cc1cnc2cc([C@H]3CC[C@@H](c4c(C)cccc4F)CC3)c(=O)n(Cc3nccnc3C(F)F)c2n1` [148A, 5-((3-(Difluoromethyl)pyrazin-2-yl)methyl)-7-((1s,4s)-4-(2-fluoro-6-methylphenyl)cyclohexyl)-3-methylpyrido[2,3-b]pyrazin-6(5H)-one], for which the half-inhibitory concentration (IC50) in test [1] was 500 to 5000 nM. Besides, the “[Agonist] B-arrestin2 recruitment” value in test [2] is given as “Non-Active”.
The corresponding values for `Cc1cnc2cc([C@H]3CC[C@H](c4c(C)cccc4F)CC3)c(=O)n(Cc3nccnc3C(F)F)c2n1` [148B, 5-((3-(Difluoromethyl)pyrazin-2-yl)methyl)-7-((1r,4r)-4-(2-fluoro-6-methylphenyl)cyclohexyl)-3-methylpyrido[2,3-b]pyrazin-6(5H)-one] are below 500 nM and “Non-Active”.
On the same counts, the results for `Cc1cnc2cc(C3CCN(c4c(C)cccc4F)CC3)c(=O)n([C@@H]3CCC(F)(F)c4nccnc43)c2n1` [149A, (R)-5-(8,8-Difluoro-5,6,7,8-tetrahydroquinoxalin-5-yl)-7-(1-(2-fluoro-6-methylphenyl)piperidin-4-yl)-3-methylpyrido[2,3-b]pyrazin-6(5H)-one] are 5000 to 100000 nM and “Non-Active”.
On the same counts, the results for `Cc1cnc2cc(C3CCN(c4c(C)cccc4F)CC3)c(=O)n([C@H]3CCC(F)(F)c4nccnc43)c2n1` [149B, (S)-5-(8,8-Difluoro-5,6,7,8-tetrahydroquinoxalin-5-yl)-7-(1-(2-fluoro-6-methylphenyl)piperidin-4-yl)-3-methylpyrido[2,3-b]pyrazin-6(5H)-one] are below 500 nM and “Non-Active”.
For `Cc1cnc2cc([C@H]3CC[C@@H](c4cnccc4C(F)(F)F)CC3)c(=O)n(Cc3ncccc3C(F)(F)F)c2n1` [150A, 3-Methyl-5-((3-(trifluoromethyl)pyridin-2-yl)methyl)-7-((1s,4s)-4-(4-(trifluoromethyl)pyridin-3-yl)cyclohexyl)pyrido[2,3-b]pyrazin-6(5H)-one], the IC50 in test [1] is below 500 nM. In test [2] (at 10 μM), the “[Agonist] B-arrestin2 recruitment” value is “Non-Active at 10 μM”.
As to `Cc1cnc2cc([C@H]3CC[C@H](c4cnccc4C(F)(F)F)CC3)c(=O)n(Cc3ncccc3C(F)(F)F)c2n1` [150B, 3-Methyl-5-((3-(trifluoromethyl)pyridin-2-yl)methyl)-7-((1r,4r)-4-(4-(trifluoromethyl)pyridin-3-yl)cyclohexyl)pyrido[2,3-b]pyrazin-6(5H)-one], the IC50 in test [1] was below 500 nM. Also, the “[Agonist] B-arrestin2 recruitment” value in test [2] was “Non-Active”.
`Cc1cccc(F)c1N1CCC(c2cc3nccnc3n([C@H]3CCc4nccnc43)c2=O)CC1` [160A, (S)-5-(6,7-Dihydro-5H-cyclopenta[b]pyrazin-5-yl)-7-(1-(2-fluoro-6-methylphenyl)piperidin-4-yl)pyrido[2,3-b]pyrazin-6(5H)-one]: the IC50 in test [1] is 5000 to 100000 nM. In addition, the “[Agonist] B-arrestin2 recruitment” value in test [2] (at 10 μM) was “Non-Active at 10 μM”.
For `Cc1cccc(F)c1N1CCC(c2cc3nccnc3n([C@@H]3CCc4nccnc43)c2=O)CC1` [160B, (R)-5-(6,7-Dihydro-5H-cyclopenta[b]pyrazin-5-yl)-7-(1-(2-fluoro-6-methylphenyl)piperidin-4-yl)pyrido[2,3-b]pyrazin-6(5H)-one], the half-maximal inhibitory concentration (IC50) in test [1] is 5000 to 100000 nM. In addition, the “[Agonist] B-arrestin2 recruitment” value in test [2] (at 10 μM) is on record as “Non-Active at 10 μM”.
On to `Cc1cnc2cc(N3CCN(c4c(C)cccc4F)CC3)c(=O)n(Cc3nccnc3OC(F)F)c2n1` [161A, 5-((3-(Difluoromethoxy)pyrazin-2-yl)methyl)-7-(4-(2-fluoro-6-methylphenyl)piperazin-1-yl)-3-methylpyrido[2,3-b]pyrazin-6(5H)-one], for which the IC50 in test [1] fell in the range of 500 to 5000 nM. Also, in test [2] (at 10 μM), the “[Agonist] B-arrestin2 recruitment” value is given as “Non-Active at 10 μM”.
On the same counts, the results for `Cc1cnc2cc(N3CCN(c4c(C)cccc4F)CC3)c(=O)n(Cc3nccn(C(F)F)c3=O)c2n1` [161B, 5-((4-(Difluoromethyl)-3-oxo-3,4-dihydropyrazin-2-yl)methyl)-7-(4-(2-fluoro-6-methylphenyl)piperazin-1-yl)-3-methylpyrido[2,3-b]pyrazin-6(5H)-one] are 5000 to 100000 nM and “Non-Active at 10 μM”.
On the same counts, the results for `Cc1cnc2cc([C@H]3CC[C@@H](c4c(C)cccc4F)CC3)c(=O)n(Cc3nccnc3OC(F)F)c2n1` [168A, 5-((3-(Difluoromethoxy)pyrazin-2-yl)methyl)-7-((1s,4s)-4-(2-fluoro-6-methylphenyl)cyclohexyl)-3-methylpyrido[2,3-b]pyrazin-6(5H)-one] are 500 to 5000 nM and “Non-Active at 10 μM”.
On to `Cc1cnc2cc([C@H]3CC[C@H](c4c(C)cccc4F)CC3)c(=O)n(Cc3nccnc3OC(F)F)c2n1` [168B, 5-((3-(Difluoromethoxy)pyrazin-2-yl)methyl)-7-((1r,4r)-4-(2-fluoro-6-methylphenyl)cyclohexyl)-3-methylpyrido[2,3-b]pyrazin-6(5H)-one], for which the IC50 in test [1] is below 500 nM. Moreover, the “[Agonist] B-arrestin2 recruitment” value in test [2] (at 10 μM) is on record as “Non-Active at 10 μM”.
The corresponding values for `Cc1cnc2cc([C@H]3CC[C@@H](c4c(C)cccc4F)C3)c(=O)n(Cc3ncccc3C(F)(F)F)c2n1` [171A, 7-((1S,3R)-3-(2-Fluoro-6-methylphenyl)cyclopentyl)-3-methyl-5-((3-(trifluoromethyl)pyridin-2-yl)methyl)pyrido[2,3-b]pyrazin-6(5H)-one] are below 500 nM and “Non-Active at 10 μM”.
On to `Cc1cnc2cc([C@@H]3CC[C@H](c4c(C)cccc4F)C3)c(=O)n(Cc3ncccc3C(F)(F)F)c2n1` [171B, 7-((1R,3S)-3-(2-Fluoro-6-methylphenyl)cyclopentyl)-3-methyl-5-((3-(trifluoromethyl)pyridin-2-yl)methyl)pyrido[2,3-b]pyrazin-6(5H)-one], for which the IC50 in test [1] is below 500 nM. Moreover, the “[Agonist] B-arrestin2 recruitment” value in test [2] (at 10 μM) is “Non-Active at 10 μM”.
Turning to `Cc1cnc2cc([C@H]3CC[C@H](c4c(C)cccc4F)C3)c(=O)n(Cc3ncccc3C(F)(F)F)c2n1` [171C, 7-((1S,3S)-3-(2-Fluoro-6-methylphenyl)cyclopentyl)-3-methyl-5-((3-(trifluoromethyl)pyridin-2-yl)methyl)pyrido[2,3-b]pyrazin-6(5H)-one], in test [1], the IC50 is below 500 nM. Further, in test [2], the “[Agonist] B-arrestin2 recruitment” value is “Non-Active”.
As for `Cc1cnc2cc([C@@H]3CC[C@@H](c4c(C)cccc4F)C3)c(=O)n(Cc3ncccc3C(F)(F)F)c2n1` [171D, 7-((1R,3R)-3-(2-Fluoro-6-methylphenyl)cyclopentyl)-3-methyl-5-((3-(trifluoromethyl)pyridin-2-yl)methyl)pyrido[2,3-b]pyrazin-6(5H)-one], the IC50 in test [1] lay in the range of 500 to 5000 nM. Moreover, the “[Agonist] B-arrestin2 recruitment” value in test [2] (at 10 μM) is on record as “Non-Active at 10 μM”.
Consider `Cc1cnc2cc([C@H]3CC[C@@H](c4c(C)cccc4F)C3)c(=O)n(Cc3nccnc3C)c2n1` [172A, 7-((1S,3R)-3-(2-Fluoro-6-methylphenyl)cyclopentyl)-3-methyl-5-((3-methylpyrazin-2-yl)methyl)pyrido[2,3-b]pyrazin-6(5H)-one], for which the IC50 in test [1] lay within 500 to 5000 nM. For the same molecule, in test [2] (at 10 μM), the “[Agonist] B-arrestin2 recruitment” value is recorded as “Non-Active at 10 μM”.
On the same counts, the results for `Cc1cnc2cc([C@@H]3CC[C@H](c4c(C)cccc4F)C3)c(=O)n(Cc3nccnc3C)c2n1` [172B, 7-((1R,3S)-3-(2-Fluoro-6-methylphenyl)cyclopentyl)-3-methyl-5-((3-methylpyrazin-2-yl)methyl)pyrido[2,3-b]pyrazin-6(5H)-one] are 500 to 5000 nM and “Non-Active at 10 μM”.
With `Cc1cnc2cc([C@H]3CC[C@H](c4c(C)cccc4F)C3)c(=O)n(Cc3nccnc3C)c2n1` [172C, 7-((1S,3S)-3-(2-Fluoro-6-methylphenyl)cyclopentyl)-3-methyl-5-((3-methylpyrazin-2-yl)methyl)pyrido[2,3-b]pyrazin-6(5H)-one], the IC50 in test [1] is below 500 nM. Moreover, the “[Agonist] B-arrestin2 recruitment” value in test [2] (at 10 μM) was “Non-Active at 10 μM”.
